Assay results published in PubChem BioAssay AID1259407 (Chemical Carcinogenesis Research Information System (CCRIS), 2018).
Activity calls are given as the source filed them. No rule for the calls is given here.

Tested on: CCRIS mutagenicity, Ames/micronucleus/aberration tests
Test: CCRIS mutagenicity studies
[1] = Test System: AMES SALMONELLA TYPHIMURIUM, Strain/Indicator: TA97, Metabolic Activation: NONE, Method: PREINCUBATION
[2] = Test System: AMES SALMONELLA TYPHIMURIUM, Strain/Indicator: TA98, Metabolic Activation: NONE, Method: PREINCUBATION
[3] = Test System: AMES SALMONELLA TYPHIMURIUM, Strain/Indicator: TA100, Metabolic Activation: NONE, Method: PREINCUBATION

SMILES: OCl
- mutagenic call (End Point: IN VIVO MICRONUCLEUS, Test System: BONE MARROW POLYCHROMATIC ERYTHROCYTES, Species: MOUSE, Strain/Sex: DDY/MALE, Route: IP): inactive; negative
- mutagenic call [1]: inactive; negative
- mutagenic call (Test System: AMES SALMONELLA TYPHIMURIUM, Strain/Indicator: TA97, Metabolic Activation: RAT, LIVER, S-9, AROCLOR 1254, Method: PREINCUBATION): inactive; negative
- mutagenic call (Test System: AMES SALMONELLA TYPHIMURIUM, Strain/Indicator: TA98, Metabolic Activation: NONE, Method: FLUCTUATION TEST): inactive; negative
- mutagenic call (Test System: AMES SALMONELLA TYPHIMURIUM, Strain/Indicator: TA98, Metabolic Activation: NONE, Method: STANDARD PLATE): inactive; negative
- mutagenic call (Test System: AMES SALMONELLA TYPHIMURIUM, Strain/Indicator: TA98, Metabolic Activation: RAT, LIVER, S-9, AROCLOR 1254, Method: STANDARD PLATE): inactive; negative
- mutagenic call (Test System: AMES SALMONELLA TYPHIMURIUM, Strain/Indicator: TA100, Metabolic Activation: NONE, Method: FLUCTUATION TEST): inactive; negative
- mutagenic call (Test System: AMES SALMONELLA TYPHIMURIUM, Strain/Indicator: TA100, Metabolic Activation: NONE, Method: STANDARD PLATE): inactive; negative
- mutagenic call (Test System: AMES SALMONELLA TYPHIMURIUM, Strain/Indicator: TA100, Metabolic Activation: RAT, LIVER, S-9, AROCLOR 1254, Method: STANDARD PLATE): inactive; negative
- mutagenic call (Test System: AMES SALMONELLA TYPHIMURIUM, Strain/Indicator: TA102, Metabolic Activation: NONE, Method: FLUCTUATION TEST): inactive; negative
- mutagenic call (Test System: AMES SALMONELLA TYPHIMURIUM, Strain/Indicator: TA102, Metabolic Activation: NONE, Method: PREINCUBATION): inactive; negative
- mutagenic call (Test System: AMES SALMONELLA TYPHIMURIUM, Strain/Indicator: TA102, Metabolic Activation: RAT, LIVER, S-9, AROCLOR 1254, Method: PREINCUBATION): inactive; negative
- mutagenic call (Test System: AMES SALMONELLA TYPHIMURIUM, Strain/Indicator: TA1535, Metabolic Activation: NONE, Method: STANDARD PLATE): inactive; negative
- mutagenic call (Test System: AMES SALMONELLA TYPHIMURIUM, Strain/Indicator: TA1535, Metabolic Activation: RAT, LIVER, S-9, AROCLOR 1254, Method: STANDARD PLATE): inactive; negative
- mutagenic call (Test System: AMES SALMONELLA TYPHIMURIUM, Strain/Indicator: TA1537, Metabolic Activation: NONE, Method: STANDARD PLATE): inactive; negative
- mutagenic call (Test System: AMES SALMONELLA TYPHIMURIUM, Strain/Indicator: TA1537, Metabolic Activation: RAT, LIVER, S-9, AROCLOR 1254, Method: STANDARD PLATE): inactive; negative
- mutagenic call (Test System: AMES SALMONELLA TYPHIMURIUM, Strain/Indicator: TA1538, Metabolic Activation: NONE, Method: STANDARD PLATE): inactive; negative
- mutagenic call (Test System: AMES SALMONELLA TYPHIMURIUM, Strain/Indicator: TA1538, Metabolic Activation: RAT, LIVER, S-9, AROCLOR 1254, Method: STANDARD PLATE): inactive; negative
- mutagenic call (Test System: CHINESE HAMSTER OVARY, Strain/Indicator: CHO-K1-BH4 (HGPRT), Metabolic Activation: NONE, Method: STANDARD PLATE): inactive; negative
- mutagenic call (Test System: UDS RODENT HEPATOCYTES, Strain/Indicator: THY INCORP (NON-S-PHASE), Metabolic Activation: NONE, Method: LIQUID SCINTILLATION COUNTING): inactive; negative

SMILES: c1ccc2[nH]cnc2c1
- mutagenic call (Test System: AMES SALMONELLA TYPHIMURIUM, Strain/Indicator: TA97, Metabolic Activation: HAMSTER, LIVER, S-9, AROCLOR 1254 (10 OR 30%), Method: PREINCUBATION): inactive; negative
- mutagenic call [1]: inactive; negative
- mutagenic call (Test System: AMES SALMONELLA TYPHIMURIUM, Strain/Indicator: TA97, Metabolic Activation: RAT, LIVER, S-9, AROCLOR 1254 (10 OR 30%), Method: PREINCUBATION): inactive; negative
- mutagenic call (Test System: AMES SALMONELLA TYPHIMURIUM, Strain/Indicator: TA98, Metabolic Activation: HAMSTER, LIVER, S-9, AROCLOR 1254 (10 OR 30%), Method: PREINCUBATION): inactive; negative
- mutagenic call [2]: inactive; negative
- mutagenic call (Test System: AMES SALMONELLA TYPHIMURIUM, Strain/Indicator: TA98, Metabolic Activation: RAT, LIVER, S-9, AROCLOR 1254 (10 OR 30%), Method: PREINCUBATION): inactive; negative
- mutagenic call (Test System: AMES SALMONELLA TYPHIMURIUM, Strain/Indicator: TA100, Metabolic Activation: HAMSTER, LIVER, S-9, AROCLOR 1254 (10 OR 30%), Method: PREINCUBATION): inactive; negative
- mutagenic call [3]: inactive; negative
- mutagenic call (Test System: AMES SALMONELLA TYPHIMURIUM, Strain/Indicator: TA100, Metabolic Activation: RAT, LIVER, S-9, AROCLOR 1254 (10 OR 30%), Method: PREINCUBATION): inactive; negative
- mutagenic call (Test System: AMES SALMONELLA TYPHIMURIUM, Strain/Indicator: TA1535, Metabolic Activation: HAMSTER, LIVER, S-9, AROCLOR 1254 (10 OR 30%), Method: PREINCUBATION): inactive; negative
- mutagenic call (Test System: AMES SALMONELLA TYPHIMURIUM, Strain/Indicator: TA1535, Metabolic Activation: NONE, Method: PREINCUBATION): inactive; negative
- mutagenic call (Test System: AMES SALMONELLA TYPHIMURIUM, Strain/Indicator: TA1535, Metabolic Activation: RAT, LIVER, S-9, AROCLOR 1254 (10 OR 30%), Method: PREINCUBATION): inactive; negative
- mutagenic call (Test System: AMES SALMONELLA TYPHIMURIUM, Strain/Indicator: TA1537, Metabolic Activation: HAMSTER, LIVER, S-9, AROCLOR 1254 (10 OR 30%), Method: PREINCUBATION): inactive; negative
- mutagenic call (Test System: AMES SALMONELLA TYPHIMURIUM, Strain/Indicator: TA1537, Metabolic Activation: NONE, Method: PREINCUBATION): inactive; negative
- mutagenic call (Test System: AMES SALMONELLA TYPHIMURIUM, Strain/Indicator: TA1537, Metabolic Activation: RAT, LIVER, S-9, AROCLOR 1254 (10 OR 30%), Method: PREINCUBATION): inactive; negative

SMILES: CC1COc2c(N3CCN(C)CC3)c(F)cc3c(=O)c(C(=O)O)cn1c23 (centres undefined)
- mutagenic call (End Point: AMES SALMONELLA TYPHIMURIUM, Test System: TA98, Metabolic Activation: NONE, Method: STANDARD PLATE): active; positive
- mutagenic call (End Point: AMES SALMONELLA TYPHIMURIUM, Test System: TA100, Metabolic Activation: NONE, Method: STANDARD PLATE): inactive; negative
- mutagenic call (Test System: AMES SALMONELLA TYPHIMURIUM, Strain/Indicator: HISG428, Metabolic Activation: NONE, Method: STANDARD PLATE): inactive; negative
- mutagenic call (Test System: AMES SALMONELLA TYPHIMURIUM, Strain/Indicator: TA92, Metabolic Activation: NONE, Method: STANDARD PLATE): active; positive
- mutagenic call (Test System: AMES SALMONELLA TYPHIMURIUM, Strain/Indicator: TA102, Metabolic Activation: NONE, Method: STANDARD PLATE): active; positive
- mutagenic call (Test System: AMES SALMONELLA TYPHIMURIUM, Strain/Indicator: TA103, Metabolic Activation: NONE, Method: STANDARD PLATE): active; positive
- mutagenic call (Test System: AMES SALMONELLA TYPHIMURIUM, Strain/Indicator: TA104, Metabolic Activation: NONE, Method: STANDARD PLATE): inactive; negative
- mutagenic call (Test System: AMES SALMONELLA TYPHIMURIUM, Strain/Indicator: TA2638, Metabolic Activation: NONE, Method: STANDARD PLATE): active; positive
- mutagenic call (Test System: AMES SALMONELLA TYPHIMURIUM, Strain/Indicator: TA2661, Metabolic Activation: NONE, Method: STANDARD PLATE): inactive; negative
- mutagenic call (Test System: AMES SALMONELLA TYPHIMURIUM, Strain/Indicator: TA2662, Metabolic Activation: NONE, Method: STANDARD PLATE): active; positive
- mutagenic call (Test System: AMES SALMONELLA TYPHIMURIUM, Strain/Indicator: TA2678, Metabolic Activation: NONE, Method: STANDARD PLATE): inactive; negative
- mutagenic call (Test System: CHINESE HAMSTER V-79, Strain/Indicator: V-79 (HPRT)/6-THIOGUANINE, Metabolic Activation: NONE): inactive; negative
- mutagenic call (Test System: MOUSE LYMPHOMA, Strain/Indicator: L5178Y (HPRT)/6-THIOGUANINE, Metabolic Activation: NONE, Method: FLUCTUATION TEST): inactive; negative
- mutagenic call (Test System: MOUSE LYMPHOMA, Strain/Indicator: L5178Y (TK+/TK-), Metabolic Activation: NONE, Method: FLUCTUATION TEST): inactive; negative

SMILES: Cc1cnc2ccc3c(ncn3C)c2n1
- mutagenic call [2]: inactive; negative
- mutagenic call (Test System: AMES SALMONELLA TYPHIMURIUM, Strain/Indicator: TA98, Metabolic Activation: RAT, LIVER, S-9, AROCLOR 1254, Method: PREINCUBATION): inactive; negative
- mutagenic call [3]: inactive; negative
- mutagenic call (Test System: AMES SALMONELLA TYPHIMURIUM, Strain/Indicator: TA100, Metabolic Activation: RAT, LIVER, S-9, AROCLOR 1254, Method: PREINCUBATION): inactive; negative

SMILES: Cc1ccc2cc3c(ccc4ccccc43)c3c2c1C(=O)C3
- mutagenic call (Test System: CHINESE HAMSTER V-79, Strain/Indicator: V-79/8-AZAGUANINE, Metabolic Activation: RAT, LIVER, S-9, AROCLOR 1254, Method: STANDARD PLATE): active; positive
